Data taken from paper PMC3409115, “Diverse Inhibitor Chemotypes Targeting Trypanosoma cruzi CYP51” (PLoS Neglected Tropical Diseases, 2012).

Legend:
[1] = tested on: T. cruzi trypomastigote strain CAI/72 in C2C12 myoblasts; experiment: Trypanocidal assay; assay type: cell-based, Trypanosoma cruzi; conditions: 14 days treatment, then one week compound-free
Procedure: Compounds cross-validated with low EC50 against T. cruzi infected cells were further evaluated to determine the “cidal” concentration at which host cells are effectively cured, using the protocol adapted from Engel et al 1998 [30]. To allow long term treatment and avoid culture overgrowth, C2C12 myoblasts were seeded at low density in 96 well plates (10^3 cells/well) and cultured with DMEM H-21 medium supplemented with low FBS concentration (1%), 25 mM HEPES, 2 mM L-glutamine, 100 U/ml penicillin and 100 µg/ml streptomycin. The cells were infected with T. cruzi trypomastigote strain CAI/72 (5 parasites/cell) for 24 h and treated with 0, 0.04, 0.12, 0.37, 1.10, 3.30 or 10 µM test compounds in 100 µl of medium for 14 days. During the course of treatment, medium supplemented with test compounds was replaced every 72 h. After 14 days, drug pressure was withdrawn and incubation continued in the compound-free medium for another week, during which cultures were monitored for reappearance of T. cruzi trypomastigotes in the supernatant.

[2] = tested on: host cell (skeletal myoblasts, bovine embryo skeletal muscle or C2C12); experiment: Host cell toxicity in the cross-validation assay; assay type: cell-based; conditions: host cells in cross-validation assay, up to 10 µM

Row | Compound | Trypanocidal concentration [1] | Toxicity score (highest percentage of host cell growth inhibition) [2]
1 | O=C(c1ccc(Cl)cc1)C(Oc1ccc(Cl)cc1)n1cncn1 (stereo not shown) [Compound 13, 2-(4-chlorophenoxy)-1-(4-chlorophenyl)-2-(1H-1,2,4-triazol-1-yl)ethanone] | 2.5 µM | 3 (3- 31-40%)
2 | Brc1ccccc1OCCCCCCn1ccnc1 [Compound 1] | 0.04 µM | 2 (2-21-30%)
